Assay results taken from patent US20220388964A1 (HiberCell, Inc., priority 2019, published 2022).

molecular target: T1, GCN2 (Homo sapiens, UniProt Q9P2K8); test: TR-FRET assay for inhibition of GCN2 (Example 107, for Examples 40-72); details: not given
T1 sequence (Q9P2K8 whole entry): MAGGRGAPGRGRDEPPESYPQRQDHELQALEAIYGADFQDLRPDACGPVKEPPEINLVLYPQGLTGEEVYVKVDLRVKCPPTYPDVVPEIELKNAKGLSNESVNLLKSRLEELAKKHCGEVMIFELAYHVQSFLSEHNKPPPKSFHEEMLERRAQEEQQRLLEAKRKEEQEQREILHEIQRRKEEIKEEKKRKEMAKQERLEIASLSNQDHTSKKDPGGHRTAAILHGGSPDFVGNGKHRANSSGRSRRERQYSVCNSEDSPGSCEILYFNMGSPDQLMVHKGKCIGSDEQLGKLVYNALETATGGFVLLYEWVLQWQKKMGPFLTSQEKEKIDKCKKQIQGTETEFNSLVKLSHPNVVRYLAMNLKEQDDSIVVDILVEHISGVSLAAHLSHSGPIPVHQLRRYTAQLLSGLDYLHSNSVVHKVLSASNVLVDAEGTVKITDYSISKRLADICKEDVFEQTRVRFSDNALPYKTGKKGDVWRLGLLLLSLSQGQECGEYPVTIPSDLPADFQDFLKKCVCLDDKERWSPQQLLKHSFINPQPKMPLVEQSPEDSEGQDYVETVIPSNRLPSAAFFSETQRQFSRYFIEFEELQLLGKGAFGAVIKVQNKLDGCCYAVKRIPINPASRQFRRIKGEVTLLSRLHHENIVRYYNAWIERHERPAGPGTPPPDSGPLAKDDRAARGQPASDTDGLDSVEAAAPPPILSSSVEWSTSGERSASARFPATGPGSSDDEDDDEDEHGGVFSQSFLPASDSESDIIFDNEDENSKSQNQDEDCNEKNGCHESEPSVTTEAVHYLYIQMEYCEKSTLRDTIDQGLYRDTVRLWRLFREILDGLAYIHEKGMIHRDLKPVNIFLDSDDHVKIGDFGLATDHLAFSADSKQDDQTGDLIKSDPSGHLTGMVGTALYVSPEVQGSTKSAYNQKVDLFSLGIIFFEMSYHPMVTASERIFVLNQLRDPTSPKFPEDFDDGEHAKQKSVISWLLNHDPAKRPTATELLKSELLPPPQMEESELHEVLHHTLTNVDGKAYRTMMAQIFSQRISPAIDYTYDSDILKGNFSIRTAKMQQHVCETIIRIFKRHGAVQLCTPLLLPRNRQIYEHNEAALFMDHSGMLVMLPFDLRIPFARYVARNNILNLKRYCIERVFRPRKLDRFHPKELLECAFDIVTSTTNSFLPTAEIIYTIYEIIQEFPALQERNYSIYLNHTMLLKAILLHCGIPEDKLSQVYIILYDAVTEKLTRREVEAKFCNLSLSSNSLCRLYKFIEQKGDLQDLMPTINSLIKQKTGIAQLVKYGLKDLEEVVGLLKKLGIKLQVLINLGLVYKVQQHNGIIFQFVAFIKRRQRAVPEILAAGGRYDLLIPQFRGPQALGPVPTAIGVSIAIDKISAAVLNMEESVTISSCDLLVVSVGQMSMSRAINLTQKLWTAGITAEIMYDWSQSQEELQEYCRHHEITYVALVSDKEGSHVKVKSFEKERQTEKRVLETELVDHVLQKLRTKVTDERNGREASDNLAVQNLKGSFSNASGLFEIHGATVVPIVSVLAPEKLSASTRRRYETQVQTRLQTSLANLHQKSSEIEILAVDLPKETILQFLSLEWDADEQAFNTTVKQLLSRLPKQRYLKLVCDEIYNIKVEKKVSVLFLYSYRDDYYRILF

Row | Structure (SMILES) | IC50 [nM]
1 | CNC(=O)c1n[nH]c2c(F)c(-c3c(F)ccc(NS(=O)(=O)c4cc(C#N)cnc4OC(F)F)c3F)ccc12 [Example 46, 6-[3-[5-Cyano-2-(difluoromethoxy)pyridine-3-sulfonamido]-2,6-difluorophenyl]-7-fluoro-N-methyl-1H-indazole-3-carboxamide] | < 500
2 | COc1ncc(Cl)cc1S(=O)(=O)Nc1ccc(F)c(-c2ccc3c(C(=O)NC(C)CO)n[nH]c3c2F)c1F (stereo not shown) [Example 53, 6-[3-(5-Chloro-2-methoxypyridine-3-sulfonamido)-2,6-difluorophenyl]-7-fluoro-N-(1-hydroxypropan-2-yl)-1H-indazole-3-carboxamide] | < 500
3 | CCNC(=O)c1n[nH]c2c(F)c(-c3c(F)ccc(NS(=O)(=O)c4cc(Cl)cnc4OC)c3F)ccc12 [Example 49, 6-(3-((5-Chloro-2-methoxypyridine)-3-sulfonamido)-2,6-difluorophenyl)-N-ethyl-7-fluoro-1H-indazole-3-carboxamide] | < 500
4 | CNC(=O)c1n[nH]c2c(F)c(-c3c(F)ccc(NS(=O)(=O)c4cc(Cl)cnc4C)c3F)ncc12 [Example 72, 6-[3-(5-Chloro-2-methylpyridine-3-sulfonamido)-2,6-difluorophenyl]-7-fluoro-N-methyl-1H-pyrazolo[4,3-c]pyridine-3-carboxamide] | < 500
5 | COc1ncc(Cl)cc1S(=O)(=O)Nc1ccc(F)c(-c2ccc3c(C(=O)NC4CCC(=O)N(C)C4)n[nH]c3c2F)c1F (stereo not shown) [Example 50, 6-[3-(5-Chloro-2-methoxypyridine-3-sulfonamido)-2,6-difluorophenyl]-7-fluoro-N-(1-methyl-6-oxopiperidin-3-yl)-1H-indazole-3-carboxamide] | < 500
6 | CNC(=O)c1n[nH]c2c(F)c(-c3c(F)ccc(NS(=O)(=O)c4cccc5ncn(C)c45)c3F)ccc12 [Example 63, 6-[2,6-Difluoro-3-(3-methyl-1,3-benzodiazole-4-sulfonamido)phenyl]-7-fluoro-N-methyl-1H-indazole-3-carboxamide] | < 500
7 | COc1ncc(Cl)cc1S(=O)(=O)Nc1ccc(F)c(-c2ccc3c(C(=O)NC4CCNC4=O)n[nH]c3c2F)c1F (stereo not shown) [Example 54, 6-[3-(5-Chloro-2-methoxypyridine-3-sulfonamido)-2,6-difluorophenyl]-7-fluoro-N-(2-oxopyrrolidin-3-yl)-1H-indazole-3-carboxamide] | < 500
8 | CNC(=O)c1n[nH]c2c(F)c(-c3c(F)ccc(NS(=O)(=O)c4cc(F)cc(CO)c4)c3F)ccc12 [Example 42, 6-[2,6-difluoro-3-[3-fluoro-5-(hydroxymethyl)benzenesulfonamido]phenyl]-7-fluoro-N-methyl-1H-indazole-3-carboxamide] | < 500
9 | CNC(=O)c1n[nH]c2c(F)c(-c3c(F)ccc(NS(=O)(=O)c4cccc(CO)c4)c3F)ccc12 [Example 41, 6-[2,6-Difluoro-3-[3-(hydroxymethyl)benzenesulfonamido]phenyl]-7-fluoro-N-methyl-1H-indazole-3-carboxamide] | 500 to 2500
10 | COc1ncc(Cl)cc1S(=O)(=O)Nc1ccc(F)c(-c2ccc3c(C(=O)NCC(C)C)n[nH]c3c2F)c1F [Example 48, 6-[3-(5-Chloro-2-methoxypyridine-3-sulfonamido)-2,6-difluorophenyl]-7-fluoro-N-(2-methylpropyl)-1H-indazole-3-carboxamide] | < 500
11 | CCCNC(=O)c1n[nH]c2c(F)c(-c3c(F)ccc(NS(=O)(=O)c4cc(Cl)cnc4OC)c3F)ccc12 [Example 58, 6-[3-(5-Chloro-2-methoxypyridine-3-sulfonamido)-2,6-difluorophenyl]-7-fluoro-N-propyl-1H-indazole-3-carboxamide] | < 500
12 | COc1ncc(Cl)cc1S(=O)(=O)Nc1ccc(F)c(-c2ccc3c(C(=O)NCC(C)O)n[nH]c3c2F)c1F (stereo not shown) [Example 52, 6-[3-(5-Chloro-2-methoxypyridine-3-sulfonamido)-2,6-difluorophenyl]-7-fluoro-N-(2-hydroxypropyl)-1H-indazole-3-carboxamide] | < 500
13 | CNC(=O)c1n[nH]c2c(F)c(-c3c(F)ccc(NS(=O)(=O)c4cc(F)cnc4C)c3F)ncc12 [Example 66, 6-[2,6-Difluoro-3-(5-fluoro-2-methylpyridine-3-sulfonamido)phenyl]-7-fluoro-N-methyl-1H-pyrazolo[4,3-c]pyridine-3-carboxamide] | < 500
14 | COc1ncc(Cl)cc1S(=O)(=O)Nc1ccc(F)c(-c2ccc3c(NC(C)=O)n[nH]c3c2F)c1F [Example 44, N-(6-(3-(5-chloro-2-methoxypyridine-3-sulfonamido)-2,6-difluorophenyl)-7-fluoro-1H-indazol-3-yl)acetamide] | < 500
15 | CNC(=O)c1n[nH]c2c(F)c(-c3c(F)ccc(NS(=O)(=O)c4cccc5[nH]cnc45)c3F)ccc12 [Example 62, 6-[3-(1H-1,3-Benzodiazole-4-sulfonamido)-2,6-difluorophenyl]-7-fluoro-N-methyl-1H-indazole-3-carboxamide] | 500 to 2500
16 | CNC(=O)c1n[nH]c2c(F)c(-c3c(F)ccc(NS(=O)(=O)c4cccc5occc45)c3F)ccc12 [Example 61, 6-[3-(1-Benzofuran-4-sulfonamido)-2,6-difluorophenyl]-7-fluoro-N-methyl-1H-indazole-3-carboxamide] | < 500
17 | CNC(=O)c1n[nH]c2c(F)c(-c3c(F)ccc(NS(=O)(=O)c4cc(F)cnc4OC)c3F)ncc12 [Example 70, 6-[2,6-Difluoro-3-(5-fluoro-2-methoxypyridine-3-sulfonamido)phenyl]-7-fluoro-N-methyl-1H-pyrazolo[4,3-c]pyridine-3-carboxamide] | < 500
18 | CNC(=O)c1n[nH]c2c(F)c(-c3c(F)ccc(NS(=O)(=O)c4cc(F)cnc4C)c3F)ccc12 [Example 65, 6-[2,6-difluoro-3-(5-fluoro-2-methylpyridine-3-sulfonamido)phenyl]-7-fluoro-N-methyl-1H-indazole-3-carboxamide] | < 500
19 | CNC(=O)c1n[nH]c2c(F)c(-c3c(F)ccc(NS(=O)(=O)c4cc(Cl)cnc4OC)c3F)cc(C)c12 [Example 47, 6-[3-(5-chloro-2-methoxypyridine-3-sulfonamido)-2,6-difluorophenyl]-7-fluoro-N,4-dimethyl-1H-indazole-3-carboxamide] | < 500
20 | CCC(C)NC(=O)c1n[nH]c2c(F)c(-c3c(F)ccc(NS(=O)(=O)c4cc(Cl)cnc4OC)c3F)ccc12 (stereo not shown) [Example 56, 6-[3-(5-Chloro-2-methoxypyridine-3-sulfonamido)-2,6-difluorophenyl]-7-fluoro-N-(sec-butyl)-1H-indazole-3-carboxamide] | < 500
21 | CNC(=O)c1n[nH]c2c(F)c(-c3c(F)ccc(NS(=O)(=O)c4ccc5ccoc5c4)c3F)ccc12 [Example 68] | 500 to 2500
22 | CNC(=O)c1n[nH]c2c(F)c(-c3c(F)ccc(NS(=O)(=O)c4cccc5c4ncn5C)c3F)ccc12 [Example 69, 6-[2,6-Difluoro-3-(1-methyl-1,3-benzodiazole-4-sulfonamido)phenyl]-7-fluoro-N-methyl-1H-indazole-3-carboxamide] | 500 to 2500

molecular target: T1, GCN2; test: TR-FRET biochemical assay for inhibition of GCN2 (Example 106, for Example 1-4BB); details: Table 8

Row | Structure (SMILES) | IC50 [nM]
23 | O=S(=O)(Nc1ccc(F)c(-c2ccc3c(-c4ncc[nH]4)n[nH]c3c2F)c1F)c1ccccc1F [Example 2BT, N-(2,4-difluoro-3-(7-fluoro-3-(1H-imidazol-2-yl)-1H-indazol-6-yl)phenyl)-2-fluorobenzenesulfonamide] | < 500
24 | Cc1cnc(C)c(S(=O)(=O)Nc2ccc(F)c(-c3ccc4c(-c5ncc[nH]5)n[nH]c4c3F)c2F)c1 [Example 2AH, N-(2,4-difluoro-3-(7-fluoro-3-(1H-imidazol-2-yl)-1H-indazol-6-yl)phenyl)-2,5-dimethyl-pyridine-3-sulfonamide] | < 500
25 | COc1ncc(Cl)cc1S(=O)(=O)Nc1ccc(F)c(-c2ccc3c(-c4ccn[nH]4)n[nH]c3c2F)c1F [Example 2BZ, 5-chloro-N-(2,4-difluoro-3-(7-fluoro-3-(1H-pyrazol-5-yl)-1H-indazol-6-yl)phenyl)-2-methoxypyridine-3-sulfonamide] | < 500
26 | COc1ncc(Cl)cc1S(=O)(=O)Nc1ncc(F)c(-c2ccc3c(-c4ncc[nH]4)n[nH]c3c2F)c1F [Example 6, 5-Chloro-N-(3,5-difluoro-4-(7-fluoro-3-(1H-imidazol-2-yl)-1H-indazol-6-yl)pyridin-2-yl)-2-methoxypyridine-3-sulfonamide] | < 500
27 | O=S(=O)(Nc1ccc(F)c(-c2ccc3c(-c4ncc[nH]4)n[nH]c3c2F)c1F)c1cccc(O)c1F [Example 2AQ, N-(2,4-difluoro-3-(7-fluoro-3-(1H-imidazol-2-yl)-1H-indazol-6-yl)phenyl)-2-fluoro-3-hydroxybenzene-sulfonamide] | < 500

same assay, conditions: Table 9

Row | Structure (SMILES) | IC50 [nM]
28 | COc1ncc(Cl)cc1S(=O)(=O)Nc1cccc(-c2cc3[nH]nc(C(=O)NCCCO)c3cn2)c1F [Example 3BC, 6-(3-((5-chloro-2-methoxy-pyridine)-3-sulfonamido)-2-fluorophenyl)-N-(3-hydroxy-propyl)-1H-pyrazolo[4,3-c]pyridine-3-carboxamide] | < 500
29 | Cc1ccc(S(=O)(=O)Nc2ccc(F)c(-c3ccc4c(C(=O)Nc5cn[nH]c5)n[nH]c4c3F)c2F)c(C)n1 [Example 3DI, 6-(3-((2,6-dimethylpyridine)-3-sulfonamido)-2,6-difluoro-phenyl)-7-fluoro-N-(1H-pyrazol-4-yl)-1H-indazole-3-carboxamide] | < 500
30 | Cc1ncc(C#N)cc1S(=O)(=O)Nc1ccc(F)c(-c2ccc3c(-c4ncc[nH]4)n[nH]c3c2F)c1F [Example 3I, 5-cyano-N-(2,4-difluoro-3-(7-fluoro-3-(1H-imidazol-2-yl)-1H-indazol-6-yl)phenyl)-2-methylpyridine-3-sulfonamide] | < 500
31 | COc1ncc(F)cc1S(=O)(=O)Nc1ccc(F)c(-c2ccc3c(C(=O)NC4CCN(C)CC4)n[nH]c3c2F)c1F [Example 3AJ, 6-(2,6-difluoro-3-((5-fluoro-2-methoxypyridine)-3-sulfonamido)phenyl)-7-fluoro-N-(1-methylpiperidin-4-yl)-1H-indazole-3-carboxamide] | < 500
